Converted amounts (≈) assume the structure as drawn.
Legend:
in vivo = details: male, rat
Procedure: The administration volume was 10 mL/kg and drug was formulated with DMSO/Tween 80/physiological saline (5:5:90, v/v/v). […] 2 h after dosing, the rats ate together.
At above time points, 0.3 ml of venous blood was taken from retrobulbar venous plexus of the rat and loaded into EDTA-2K anticoagulative tube. After centrifuged at 11000 rpm for 5 mm, the plasma was separated and frozen at −20° C. in a refrigerator.
The concentration of each compound in rat plasma was determined by LC/MS/MS.
The pharmacokinetic parameters after administration were calculated by using non-compartment model of WinNonlin 5.3 software (Pharsight Corporation, USA).

HIV-1SF162 virus strain [1] = assay: Inhibition of viral replication in PBMC infected with HIV-1SF162; assay type: cell-based
Procedure: (§1) The virus was titrated according to the modified method of Johnson & Byington. Briefly, the HIV-1 stock solution was subject to four-fold dilution in a 96-well plate (ten gradients) sextuplicate for each gradient, while setting six control-wells. Into each well was added 100 μl (5×10^6/ml) PHA-stimulated PBMC cells and final volume per well was 200 μl. The cells were cultured at 37° C. with 5% CO2. […] On the seventh day, the infected supernatant was collected and lysed with 0.5% Triton X100. The p24 antigen was detected by ELISA and TCID50 of virus was calculated according to Reed & Muench method (50% Tissue culture infection dose).
(§2) The starting concentration was 1 μM, six dilutions were obtained, and each well contained 200 μl mixture. While wells not containing drugs were set as control. […] After homogeneously mixed, the mixture was immediately added to 48-well plate containing diluted drug and each well was added with 200 μl of mixture. MVC was used as positive control. The cells were cultured at 37° C. with 5% CO2 for seven days (drug with the same concentration was added on the third day). The supernatant was collected, lysed and inactivated with 0.5% Triton X-100. The inhibition effect of drug on HIV-1 replication was detected using p24 antigen capture ELISA method.

HIV-1Ba-L virus strain [2] = assay: Inhibition of viral replication in HOS-CD4-CCR5 cells infected with HIV-1Ba-L; assay type: cell-based; details: Human immunodeficiency virus 1, HOS-CD4-CCR5
Procedure: (§3) On the day before the test, 1×10^5/ml of HOS-CD4-CCR5 cells were inoculated in 96-well plates with 100 μl for each well. The compound to be tested was subject to 5-fold dilution in 96-well microtiter plate with DMEM complete medium (containing 10% FBS). The starting concentration was 1 μM and six dilutions were obtained. Triplicate wells were set for each dilution and each well contained 100 μl mixture. While wells not containing drugs were set as control. The supernatant was removed and 100 μl of drug was added and incubated for 2 h. Then 100 μl of HIV-1SF162 and HIV-1Ba-L were added to dilute supernatant. The cells were infected for 1 h, free virus was washed out and drug with the same final concentration was added. MVC was used as positive control. The cells were cultured at 37° C. with 5% CO2 for three days. The supernatant was collected, lysed and inactivated with 0.5% Triton X-100. The inhibition effect of drug on HIV-1 replication was detected using p24 antigen capture ELISA method.

HIV-1SF162 virus strain [3] = assay: Inhibition of viral replication in HOS-CD4-CCR5 cells infected with HIV-1SF162; assay type: cell-based
Procedure: as §3

HIV-1Ba-L virus strain [4] = assay: Inhibition of viral replication in PBMC infected with HIV-1Ba-L; assay type: cell-based
Procedure: The virus was titrated according to the modified method of Johnson & Byington. Briefly, the HIV-1 stock solution was subject to four-fold dilution in a 96-well plate (ten gradients) sextuplicate for each gradient, while setting six control-wells. Into each well was added 100 μl (5×10^6/ml) PHA-stimulated PBMC cells and final volume per well was 200 μl. The cells were cultured at 37° C. with 5% CO2. On the third day, 100 μl of fresh RPMI-1640 complete medium was supplemented. On the seventh day, the infected supernatant was collected and lysed with 0.5% Triton X100. The p24 antigen was detected by ELISA and TCID50 of virus was calculated according to Reed & Muench method (50% Tissue culture infection dose).
The compound to be tested was subject to 5-fold dilution in 48-well plate with RPMI-1640 complete medium (containing 10% FBS). The starting concentration was 1 μM, six dilutions were obtained, and each well contained 200 μl mixture. While wells not containing drugs were set as control. Virus (MOI=0.01) was added to 5×10^6/ml of PBMC cells which have been stimulated by PHA for 72 h. After homogeneously mixed, the mixture was immediately added to 48-well plate containing diluted drug and each well was added with 200 μl of mixture. MVC was used as positive control. The cells were cultured at 37° C. with 5% CO2 for seven days (drug with the same concentration was added on the third day). The supernatant was collected, lysed and inactivated with 0.5% Triton X-100. The inhibition effect of drug on HIV-1 replication was detected using p24 antigen capture ELISA method.

CYP2D6 = CYP2D6 (Homo sapiens (Human), UniProt P10635); assay: CYP450 inhibition activity assay (Vivid kit) CYP2D6; assay type: in vitro ADME; details: CYP450 subtype (μM) 2D6 (IC50)
Sequence of CYP2D6 (P10635 whole entry): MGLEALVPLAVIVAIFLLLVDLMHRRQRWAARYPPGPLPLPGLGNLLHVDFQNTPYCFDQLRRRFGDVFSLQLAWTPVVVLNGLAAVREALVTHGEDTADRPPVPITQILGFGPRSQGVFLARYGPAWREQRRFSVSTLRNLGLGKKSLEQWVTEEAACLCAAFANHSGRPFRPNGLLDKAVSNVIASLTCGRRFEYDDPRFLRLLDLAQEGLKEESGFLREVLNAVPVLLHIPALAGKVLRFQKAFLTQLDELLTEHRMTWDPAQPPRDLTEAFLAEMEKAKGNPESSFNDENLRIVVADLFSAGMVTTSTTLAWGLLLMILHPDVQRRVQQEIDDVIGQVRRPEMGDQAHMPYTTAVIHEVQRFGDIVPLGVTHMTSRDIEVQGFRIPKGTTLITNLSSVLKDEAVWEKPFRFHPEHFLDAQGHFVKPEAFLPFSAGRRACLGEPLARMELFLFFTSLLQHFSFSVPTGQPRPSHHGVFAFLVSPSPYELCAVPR
Procedure: VividR CYP450 Screening Kits can be used to evaluate the effects on CYP450 subtypes (CYP1A2, CYP2D6, CYP2C9, CYP2C19, CYP3A4-T and CYP3A4-M) and the substrate VividR in the kit can be metabolizd to a product which can emit strong fluorescence in an aqueous solution by specific CYP450 enzymes.
The compounds to be tested and positive compound were added to corresponding wells and DMSO was added to control wells.
CYP450 enzyme was added to the compounds to be tested, positive compound and DMSO control wells. The enzyme dilution was used to replace enzyme and added to DMSO wells as test background. The mixture was vibrated and mixed for 1 minute, and then incubated at room temperature for 20 minutes.
NADP^+ regeneration system and the substrate were added to initiate the reaction and incubated at room temperature for 60 minutes.

HIV-1KM018 virus strain = assay: Inhibition of viral replication in PBMC infected with HIV-1KM018; assay type: cell-based
Procedure: as §1, §2

HIV-1SF162 virus strain [5] = assay: Inhibition activity on TZM-bl cells infected with HIV-1SF162
[6] = Toxicity test of compounds on PBMC cells (MTT); assay type: cell-based; details: human; PBMC cells (Table 4)
Procedure: (§4) The compound to be tested was subject to 5-fold dilution in a 96-well microtiter plate with RPMI-1640 or DMEM complete medium (containing 10% FBS) (Six dilution) triplicate for each dilution and 100 μl for each well. While wells not containing drugs were set as control. Into each well was added 100 μl of 4×10^5/ml PM1, HOS-CD4-CCR5 cells or 100 μl of 5×10^6/ml PHA stimulated PBMC. The cells were cultured at 37° C. with 5% CO2 for three days (PBMC cells were cultured for seven days and 100 μl of fresh RPMI-1640 complete medium was supplemented on the third day). Cytotoxicity was tested with MTT assay. OD values were measured by ELx800 microplate reader. The detection wavelength was 570 nm, and the reference wavelength was 630 nm.

[7] = Toxicity test of compounds on HOS-CD4-CCR5 cells (MTT); assay type: cell-based; details: human; HOS-CD4+-CCR5 cells (Table 7)
Procedure: as §4

[8] = Cytotoxicity (CC50) in TZM-bl cells; assay type: cell-based; details: human; TZM-bl cells (Table 3); read-out: CC50
[9] = Human immunodeficiency virus 1, PBMC

SMILES: Cc1nnc(C(C)C)n1C1CC2CCC(C1)N2CC[C@H](NC(=O)C1CCCCC1)c1cccs1 (stereo partly shown) [Compound 16]
- bioavailability (in vivo): 14.8%
- AUC(0-t) (in vivo; 10 mg/kg): 5110 ng·h/mL
- AUC(0-inf) (in vivo; iv, 10 mg/kg): 5110 ng·h/mL
- AUC(0-t) (in vivo; iv, 10 mg/kg): 5110 ng·h/mL
- Cmax (in vivo; iv, 10 mg/kg): 4320 ng/mL
- MRT (in vivo; iv, 10 mg/kg): 47.4 min
- Tmax (in vivo; iv, 10 mg/kg): 15 min
- half-life (in vivo; iv, 10 mg/kg): 18.6 min
- AUC(0-inf) (in vivo; po, 20 mg/kg): 1510 ng·h/mL
- AUC(0-t) (in vivo; po, 20 mg/kg): 1510 ng·h/mL
- Cmax (in vivo; po, 20 mg/kg): 631 ng/mL
- MRT (in vivo; po, 20 mg/kg): 127 min
- Tmax (in vivo; po, 20 mg/kg): 15 min
- bioavailability (in vivo; po, 20 mg/kg): 14.8%
- half-life (in vivo; po, 20 mg/kg): 69.6 min
- EC50 (HIV-1SF162 virus strain [1]; [9]): 0.455 µg/mL (≈ 0.941 µM)
- therapeutic index (TI) (HIV-1SF162 virus strain [1]; PBMC cells infected with HIV-1SF162): 586.3
- EC50 (HIV-1Ba-L virus strain [2]): 0.0105 µg/mL (≈ 0.0216 µM)
- therapeutic index (TI) (HIV-1SF162 virus strain [3]; HOS-CD4+-CCR5 cells infected with HIV-1SF162): 8042
- EC50 (HIV-1SF162 virus strain [3]; Human immunodeficiency virus 1, HOS-CD4-CCR5): 0.0427 µg/mL (≈ 0.0882 µM)
- EC50 (HIV-1Ba-L virus strain [4]; [9]): 0.365 µg/mL (≈ 0.754 µM)
- therapeutic index (TI) (HIV-1Ba-L virus strain [4]; PBMC cells infected with HIV-1Ba-L): 1301.1
- IC50 (CYP2D6): 15.1 µM
- EC50 (HIV-1KM018 virus strain; [9]): 0.555 µg/mL (≈ 1.15 µM)
- therapeutic index (TI) (HIV-1KM018 virus strain; PBMC cells infected with HIV-1KM018): 481.1
- EC50 (HIV-1SF162 virus strain [5]; Human immunodeficiency virus 1, TZM-bl): 0.0118 µg/mL (≈ 0.0244 µM)
- therapeutic index (TI) (HIV-1SF162 virus strain [5]; TZM-bl cells infected with HIV-1SF162): >16963.53
- cytotoxicity in vitro and therapeutic index in words, versus positive control compound (HIV-1SF162 virus strain [5]; TZM-bl cells infected with HIV-1SF162, conclusion from Table 3): comparable with the positive control compound
- CC50 at 7 days [6]: 267 µg/mL (≈ 552 µM)
- CC50 at 3 days [7]: 343 µg/mL (≈ 709 µM)
- CC50 [8]: > 200 µg/mL

From US10167299B2, “1-(3-aminopropyl) substituted cyclic amine compounds, preparation method therefor, and pharmaceutical compositions and uses thereof” (SHANGHAI INSTITUTE OF MATERIA MEDICA, CHINESE ACADEMY OF …, priority 2013, dated 2019)
